The values below come from US6124351A, “Amino acid derivatives having a nitric oxide synthase inhibiting action” (priority 1994, dated 2000).

One experiment concerns the target T1, N-cNOS (Rattus norvegicus, UniProt P29476).
T1 construct: a soluble cytosolic fraction of the finally obtained supernate was used as the crude enzyme sample of N-cNOS; from tissue; host or cells: cerebral cortex of normal untreated male SD rats, 100,000×g soluble cytosolic fraction
The experiment can be described thus: biochemical. Particulars: for IC50: N-cNOS, rat cerebral cortex, 100 μM L-[3H] arginine, 37° C., 10 min, pH 7.4, mean ± standard error.

In the next experiment the target is T2, E-cNOS (Bos taurus, UniProt P29473).
T2 construct: the mixture was homogenized for 3 min to yield the crude enzyme sample of E-cNOS; endogenous in cells; host or cells: CPAE (cow pulmonary arterial endothelium cells), whole homogenate
Kind of experiment: Inhibition of E-cNOS, homogenate of cow pulmonary arterial endothelium cell (CPAE); conversion of L-[3H] arginine to L-[3H] citrulline. Format: biochemical. As for the experimental part:
(§1) Compounds of the invention were evaluated for their inhibitory effect against NOS isoforms in comparison with the well known NOS inhibitors. The following were used as crude enzyme fractions of the respective NOS isoforms: a soluble fraction of the rat cerebral cortex for N-cNOS and a homogenate of cow pulmonary arterial endothelium cell (CPAE) for E-cNOS, whereas for iNOS, rats were administered lipopolysaccharide (LPS, 10 mg/kg, i.p.) and lungs were removed 6 h later to prepare soluble fractions.
The crude enzyme sample of E-cNOS was prepared by the following procedure. A cow pulmonary arterial endothelium cell (CPAE) was cultured in a MEM medium containing 20% of FBS. Several days later, the cells were detached from the flask using a solution of 0.25% trypsin containing 1 mM EDTA and after addition of 0.1 M phosphate-buffered saline (PBS; pH 7.4) diluted with physiological saline, centrifugation was conducted at 1,000 rpm for 5 min. The supernate was then discarded and upon addition of a suitable amount of PBS, centrifugation was performed at 1,000 rpm for 5 min to wash the cells. The same procedure was repeated using 50 mM Tris-HCl containing 1 mM DTT (pH 7.4) to wash the cells. The precipitating cells were added an adequate amount of 50 mM Tris-HCl containing 1 mM DTT (pH 7.4) and the mixture was homogenized for 3 min to yield the crude enzyme sample of E-cNOS.
(§2) The reaction was started by addition of L-[^3 H] arginine and following incubation at 37° C. for 10 min, the reaction was terminated by addition of 2 ml of 50 mM Tris-HCl (pH 5.5) containing 1 mM EDTA and placing the mixture on ice. The reaction solution was passed through a cation-exchange resin column (Dowex AG50WX-8, Na^+ form, 3.2 ml) to separate the reaction product L-[^3 H] citrulline from the unreacted residual substrate L-[^3 H] arginine. The elute was combined with another elute resulting from the passage of distilled water (3 ml) through the column and put into a mini vial for recovery of L-[^3 H] citrulline. Thereafter, 5 ml of a scintillation fluid was added and the contained radioactivity was measured with a liquid scintillation counter to determine the amount of L-[^3 H] citrulline. The protein concentration of each crude enzyme sample was determined with a micro-assay kit of Biorad Co.
(§3) All data in Table 4 are expressed by mean ± standard error, with the number of cases indicated within parentheses.

The target of experiment [1] is T3, iNOS (Rattus norvegicus, UniProt Q06518).
T3 construct: a soluble cytosolic fraction of the finally obtained supernate was used as the crude enzyme sample of iNOS; from tissue; host or cells: lungs of LPS-treated rats, 100,000×g soluble cytosolic fraction
The experiment can be described thus: Inhibition of iNOS, soluble fraction of lungs of LPS-treated rats; conversion of L-[3H] arginine to L-[3H] citrulline. Format: biochemical. As for the experimental part:
as §1
The crude enzyme sample of iNOS was prepared by the following procedure. Rats were administered intraperitoneally with LPS (10 mg/kg) and, 6 h later, perfused in a transcardiac manner with physiological saline containing 10 U/ml of heparin; thereafter, lungs were removed. Subsequently, 5 volumes of 50 mM Tris-HCl containing 1 mM DTT (pH 7.4) was added and the mixture was homogenized for 3 min, followed by centrifugation of the homogenate at 1,000×g for 10 min. The resulting supernate was centrifuged at 100,000×g for 60 min and a soluble cytosolic fraction of the finally obtained supernate was used as the crude enzyme sample of iNOS.
The method of measuring NOS activity was basically the same as already reported by the present inventors and consisted of determining quantitatively the conversion of a substrate L-[^3 H] arginine to a reaction product L-[^3 H] citrulline [Nagafuji et al., in Brain Edema IX (Ito et al. eds.) 60, pp. 285-288, 1994, Acta Neurochir., Springer-Verlag].
The reaction solution consisted of 100 μM L-[^3 H] arginine, a prepared NOS enzyme (6-20 μg/ml protein), 1.25 mM CaCl2, 1 mM EDTA, 10 μg/ml calmodulin, 1 mM NADPH, 100 μM tetrahydrobiopterine, 10 μM FAD, 10 μM FMN and 50 mM Tris-HCl (pH 7.4), to which one of the compounds of the invention or one of the control compounds was added.
as §2, §3

Experiment [2] has as its system iNOS. The settings on record: cited from earlier work.
[3] abbreviates: compared with existing NOS inhibitors, dihydrochloride.
The mark [4] stands for this setting: index of selectivity, N-cNOS vs E-cNOS.
The mark [5] stands for this setting: index of selectivity, N-cNOS vs iNOS.
[6] abbreviates: E-cNOS, CPAE homogenate, 100 μM L-[3H] arginine, 37° C., 10 min, pH 7.4, mean ± standard error.
Setting [7] is: iNOS, LPS rat lung, 100 μM L-[3H] arginine, 37° C., 10 min, pH 7.4, mean ± standard error.
Where [8] appears, read: read-out: IC50 value iNOS (the concentration necessary to inhibit 50% activity), iNOS, LPS rat lung, 100 μM L-[3H] arginine, 37° C., 10 min, pH 7.4, mean ± standard error.

“Also recorded” adds a separate entry of the source. Where a name gives a salt, the structure may show the parent alone. Read-outs that look alike come from different tables or passages of the source.

T2 sequence (P29473 2-1205): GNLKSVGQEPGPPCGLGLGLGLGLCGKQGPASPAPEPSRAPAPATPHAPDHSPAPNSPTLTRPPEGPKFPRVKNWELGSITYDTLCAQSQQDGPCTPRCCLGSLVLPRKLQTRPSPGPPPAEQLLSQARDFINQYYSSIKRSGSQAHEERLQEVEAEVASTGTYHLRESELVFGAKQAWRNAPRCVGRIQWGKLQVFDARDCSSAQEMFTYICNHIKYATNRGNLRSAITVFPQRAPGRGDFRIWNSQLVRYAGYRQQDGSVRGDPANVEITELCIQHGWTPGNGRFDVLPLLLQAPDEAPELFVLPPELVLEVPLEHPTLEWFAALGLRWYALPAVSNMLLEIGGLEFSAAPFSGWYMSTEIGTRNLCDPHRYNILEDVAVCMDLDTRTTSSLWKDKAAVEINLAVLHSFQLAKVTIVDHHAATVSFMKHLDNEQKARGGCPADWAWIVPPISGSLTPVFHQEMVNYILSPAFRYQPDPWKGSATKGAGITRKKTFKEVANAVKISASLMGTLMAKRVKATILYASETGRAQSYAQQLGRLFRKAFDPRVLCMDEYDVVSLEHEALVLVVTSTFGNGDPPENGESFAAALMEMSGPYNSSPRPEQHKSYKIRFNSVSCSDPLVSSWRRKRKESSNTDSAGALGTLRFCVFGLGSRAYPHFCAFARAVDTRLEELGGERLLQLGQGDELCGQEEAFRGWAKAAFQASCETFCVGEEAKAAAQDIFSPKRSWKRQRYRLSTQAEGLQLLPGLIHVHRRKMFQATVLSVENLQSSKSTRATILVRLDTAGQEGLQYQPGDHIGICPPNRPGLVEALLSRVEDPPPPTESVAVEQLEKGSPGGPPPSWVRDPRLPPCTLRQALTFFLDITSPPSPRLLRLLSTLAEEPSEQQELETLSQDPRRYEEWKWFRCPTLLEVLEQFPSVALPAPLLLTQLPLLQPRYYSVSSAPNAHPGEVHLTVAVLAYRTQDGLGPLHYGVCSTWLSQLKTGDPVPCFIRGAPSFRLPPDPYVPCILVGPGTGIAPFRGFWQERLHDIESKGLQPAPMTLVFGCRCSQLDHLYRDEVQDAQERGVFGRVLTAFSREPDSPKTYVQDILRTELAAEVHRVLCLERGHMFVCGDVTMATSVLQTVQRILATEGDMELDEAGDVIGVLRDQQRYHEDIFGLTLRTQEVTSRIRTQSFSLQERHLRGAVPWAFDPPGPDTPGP
T3 sequence (Q06518 whole entry): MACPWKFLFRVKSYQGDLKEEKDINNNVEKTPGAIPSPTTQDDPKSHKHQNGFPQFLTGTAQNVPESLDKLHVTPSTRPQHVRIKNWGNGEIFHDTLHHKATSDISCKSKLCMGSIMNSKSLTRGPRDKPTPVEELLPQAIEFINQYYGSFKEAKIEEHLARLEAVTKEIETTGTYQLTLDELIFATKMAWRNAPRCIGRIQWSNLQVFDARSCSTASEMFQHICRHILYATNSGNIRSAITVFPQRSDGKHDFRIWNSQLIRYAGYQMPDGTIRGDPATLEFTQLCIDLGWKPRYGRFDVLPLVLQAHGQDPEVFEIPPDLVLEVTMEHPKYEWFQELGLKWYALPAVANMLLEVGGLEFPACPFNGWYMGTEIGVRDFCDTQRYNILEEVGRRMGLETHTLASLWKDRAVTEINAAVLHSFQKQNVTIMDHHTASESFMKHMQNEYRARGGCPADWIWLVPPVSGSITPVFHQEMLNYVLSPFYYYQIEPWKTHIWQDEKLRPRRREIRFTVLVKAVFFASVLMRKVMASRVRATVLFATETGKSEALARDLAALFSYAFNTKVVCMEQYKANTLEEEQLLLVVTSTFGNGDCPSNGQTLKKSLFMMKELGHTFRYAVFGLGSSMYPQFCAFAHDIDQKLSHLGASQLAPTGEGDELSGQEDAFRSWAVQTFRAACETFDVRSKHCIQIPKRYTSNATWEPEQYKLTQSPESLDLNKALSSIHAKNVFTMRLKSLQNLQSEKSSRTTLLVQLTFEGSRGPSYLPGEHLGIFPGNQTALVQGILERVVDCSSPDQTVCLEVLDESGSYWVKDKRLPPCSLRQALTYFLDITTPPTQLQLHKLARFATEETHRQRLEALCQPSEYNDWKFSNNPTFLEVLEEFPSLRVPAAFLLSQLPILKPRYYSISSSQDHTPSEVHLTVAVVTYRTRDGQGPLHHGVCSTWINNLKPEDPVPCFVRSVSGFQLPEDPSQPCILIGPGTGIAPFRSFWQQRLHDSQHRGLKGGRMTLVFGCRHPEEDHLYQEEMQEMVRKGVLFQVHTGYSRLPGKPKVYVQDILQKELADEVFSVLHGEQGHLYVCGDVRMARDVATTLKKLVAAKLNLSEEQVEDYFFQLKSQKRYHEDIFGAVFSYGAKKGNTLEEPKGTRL
T1 sequence (P29476 whole entry): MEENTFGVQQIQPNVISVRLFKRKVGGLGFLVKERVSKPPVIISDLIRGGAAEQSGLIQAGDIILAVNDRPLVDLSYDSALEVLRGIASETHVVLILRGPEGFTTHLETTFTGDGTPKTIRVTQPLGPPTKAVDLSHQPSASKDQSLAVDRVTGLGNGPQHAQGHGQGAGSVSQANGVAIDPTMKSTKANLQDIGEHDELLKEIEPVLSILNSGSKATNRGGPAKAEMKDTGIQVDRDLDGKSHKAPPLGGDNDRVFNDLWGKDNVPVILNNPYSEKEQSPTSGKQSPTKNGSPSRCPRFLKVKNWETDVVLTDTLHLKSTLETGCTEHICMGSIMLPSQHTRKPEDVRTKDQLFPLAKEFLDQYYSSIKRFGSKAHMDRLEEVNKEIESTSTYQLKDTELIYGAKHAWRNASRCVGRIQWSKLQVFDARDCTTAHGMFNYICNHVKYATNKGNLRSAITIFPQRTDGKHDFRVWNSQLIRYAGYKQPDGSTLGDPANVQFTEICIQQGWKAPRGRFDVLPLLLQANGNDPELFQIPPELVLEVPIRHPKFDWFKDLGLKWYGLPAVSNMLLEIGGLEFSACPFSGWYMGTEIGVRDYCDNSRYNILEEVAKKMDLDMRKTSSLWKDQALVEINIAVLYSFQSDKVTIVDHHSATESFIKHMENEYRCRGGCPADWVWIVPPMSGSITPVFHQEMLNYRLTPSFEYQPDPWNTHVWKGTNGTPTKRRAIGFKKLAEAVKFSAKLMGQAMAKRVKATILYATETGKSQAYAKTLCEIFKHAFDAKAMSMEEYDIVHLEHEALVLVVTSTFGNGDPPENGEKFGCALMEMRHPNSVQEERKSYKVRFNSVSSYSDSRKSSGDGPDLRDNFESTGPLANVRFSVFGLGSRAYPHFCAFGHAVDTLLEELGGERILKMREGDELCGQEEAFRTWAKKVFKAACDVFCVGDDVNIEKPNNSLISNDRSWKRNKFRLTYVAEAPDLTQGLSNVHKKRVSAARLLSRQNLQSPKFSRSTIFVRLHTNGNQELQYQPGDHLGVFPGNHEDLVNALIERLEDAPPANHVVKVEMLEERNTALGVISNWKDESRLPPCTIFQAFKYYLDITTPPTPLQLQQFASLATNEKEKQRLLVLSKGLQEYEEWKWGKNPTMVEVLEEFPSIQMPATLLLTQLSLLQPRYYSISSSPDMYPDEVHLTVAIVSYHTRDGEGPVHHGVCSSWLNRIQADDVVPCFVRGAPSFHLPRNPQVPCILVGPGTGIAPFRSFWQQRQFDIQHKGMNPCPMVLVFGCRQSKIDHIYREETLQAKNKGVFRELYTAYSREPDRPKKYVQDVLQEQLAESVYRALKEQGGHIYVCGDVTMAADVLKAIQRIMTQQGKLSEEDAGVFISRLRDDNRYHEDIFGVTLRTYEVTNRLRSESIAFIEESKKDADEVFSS
Protocol for N-cNOS: The crude enzyme sample of N-cNOS was prepared by the following procedure. Normal untreated male SD rats (body weight, 300-400 g) were decapitated; the whole brain was immediately removed from each animal and the cerebral cortex was separated on ice. Then, 5 volumes of 50 mM Tris-HCl containing 1 mM DTT (pH 7.4) was added and the mixture was homogenized for 3 min, followed by centrifugation at 1,000×g for 10 min. The resulting supernate was further centrifuged at 100,000×g for 60 min and a soluble cytosolic fraction of the finally obtained supernate was used as the crude enzyme sample of N-cNOS.

For the molecule `Cl.Cl.N=C(NCCC[C@H](N)C(=O)O)SCCF` [Example 4, δ-(S-(2-fluoroethyl)-isothioureido)-L-norvaline dihydrochloride], the “selectivity for N-cNOS or E-cNOS (in words)” value on N-cNOS (N-cNOS vs E-cNOS, compared with existing NOS inhibitors, dihydrochloride) is given as “more selective inhibitory effect on N-cNOS compared with the existing NOS inhibitors; also recorded: outstandingly high selective inhibitory effect on brain N-cNOS”. The IC50 against N-cNOS was 10.5 ± 0.8 nM; against E-cNOS (setting [6]) it was 1310 nM; against iNOS [1] (setting [7]) it was 501 nM. Also, at N-cNOS (setting [3]), the “N-cNOS inhibitory effect (in words)” value is given as “stronger N-cNOS inhibitory effect than the existing NOS inhibitors; also recorded: strong brain N-cNOS inhibitory effect”. Moreover, the “Ratio of I50 values E-cNOS/N-cNOS” value on N-cNOS (setting [4]) turned out to be 124.9. Moreover, the “Ratio of I50 values iNOS/N-cNOS” value on N-cNOS (setting [5]) is 47.7. Also, at N-cNOS (over existing NOS inhibitors), the “N-cNOS selective inhibitory effect (in words)” value is listed as “by far superior N-cNOS selective inhibitory effect over the existing NOS inhibitors”. Moreover, the “E-cNOS inhibitory effect (in words)” value on E-cNOS is listed as “weak E-cNOS inhibitory effect”.
In the case of `C=CCSC(=N)NCCC[C@H](N)C(=O)O.Cl.Cl` [Example 6, δ-(S-(2-propenyl)isothioureido)-L-norvaline dihydrochloride], the “selectivity for N-cNOS or iNOS (in words)” value on N-cNOS (N-cNOS vs iNOS, compared with existing NOS inhibitors, dihydrochloride) is listed as “extremely high selective inhibitory effect on iNOS”. For the same molecule, the IC50 at N-cNOS was 113 ± 6 nM; on E-cNOS (setting [6]), 1180 nM; against iNOS [1] (setting [7]), 298 nM. Moreover, the “Ratio of I50 values E-cNOS/N-cNOS” value at N-cNOS (setting [4]) is on record as 10.4. Moreover, the “Ratio of I50 values iNOS/N-cNOS” value at N-cNOS (setting [5]) is reported as 2.6. Also, the “iNOS inhibitory effect (in words)” value at iNOS [1] (setting [3]) is recorded as “by far stronger iNOS inhibitory effect than the existing NOS inhibitors; also recorded: strong iNOS inhibitory effect”. The “iNOS selective inhibitory effect (in words)” value on iNOS [1] (over existing NOS inhibitors) is on record as “by far superior iNOS selective inhibitory effect over the existing NOS inhibitors”.
Consider `N[C@@H](CCCNC1=NCCS1)C(=O)O` [Example 8, δ-(2,3-dehydrothiazolin-2-yl)amino-L-norvaline dihydrochloride], for which the IC50 was determined as 564 ± 284 nM on N-cNOS, 3320 nM on E-cNOS (setting [6]) and 5410 nM against iNOS [1] (setting [7]). The “Ratio of I50 values E-cNOS/N-cNOS” value at N-cNOS (setting [4]) was determined as 5.9. Besides, on N-cNOS (setting [5]), the “Ratio of I50 values iNOS/N-cNOS” value was found to be 9.6.
In the same order, the values of `CSC(=N)NCCCC[C@H](N)C(=O)O.Cl.Cl` [Example 10, ε-(S-methylisothioureido)-L-norleucine dihydrochloride] are 1260 nM, 6410 nM, 10400 nM, 5.1 and 8.3.
In the same order, the values of `CCCSC(=N)NCCC[C@H](N)C(=O)O` [Example 12, δ-(S-(n-propyl)isothioureido)-L-norvaline] are 1340 nM, 12500 nM, 4500 nM, 9.3 and 3.4.
The molecule `O=[N+]([O-])c1cccc2cn[nH]c12` [Example 7-NI, 7-nitroindazole, reference compound] registered an IC50 at iNOS [1] (setting [7]) of 6930 nM.
With `CCSC(=N)NCCC[C@H](N)C(=O)O` [Example 2, δ-(S-ethylisothioureido)-L-norvaline], on N-cNOS (compared with existing NOS inhibitors), the “N-cNOS inhibitory effect (in words)” value was “stronger N-cNOS inhibitory effect than the existing NOS inhibitors; also recorded: strong brain N-cNOS inhibitory effect”. Besides, the “E-cNOS inhibitory effect (in words)” value on E-cNOS is “weak E-cNOS inhibitory effect”. In addition, the IC50 against E-cNOS was determined as 492 ± 315 nM; at iNOS [1] (setting [8]), 6760 nM.
Take `C=CCNC(=N)NCCC[C@H](N)C(=O)O` [L-ALA, N^G -allyl-L-arginine, reference compound]: the “Ratio of I50 values E-cNOS/N-cNOS” value at N-cNOS (setting [4]) was 15.2. The “Ratio of I50 values iNOS/N-cNOS” value at N-cNOS (setting [5]) was 12.1. In addition, the IC50 against iNOS [1] (setting [7]) came out at 12000 nM.
For `N=C(N)NN` [AG, aminoguanidine, reference compound], at N-cNOS, the “Ratio of I50 values E-cNOS/N-cNOS” value was above 4.9. Moreover, the “Ratio of I50 values iNOS/N-cNOS” value at N-cNOS (setting [5]) came to 1.3. Moreover, the IC50 against iNOS [1] was 27200 nM. Further, the “selectivity for iNOS vs E-cNOS (in words)” value with iNOS [2] (Griffith et al. 1993) is “selectivity for iNOS in comparison with the E-cNOS inhibiting action”. The “inhibiting potency and selectivity for iNOS (in words)” value in the experiment on iNOS [2] (as a therapeutic against hypotension in sepsis) is given as “insufficient to warrant its use as a therapeutic effective against hypotension in sepsis”.
`N=C(NCCC[C@H](N)C(=O)O)NC1CC1` [L-CPA, N^G -cyclopropyl-L-arginine, reference compound]: the IC50 against E-cNOS (setting [6]) was 1480 nM; at iNOS [1] (setting [8]) it was 7150 nM.
Consider `COC(=O)[C@@H](N)CCCNC(=N)N[N+](=O)[O-]` [L-NAME, N^G -nitro-L-arginine methyl ester, reference compound], for which, on iNOS [1] (setting [8]), the IC50 came out at 13500 nM.
In turn, `CC(=N)NCCC[C@H](N)C(=O)O` [L-NIO, N^G -iminoethyl-ornithine, reference compound] gave an IC50 against iNOS [1] (setting [7]) of 458 ± 85.8 nM.
